pIC50: −log10 of the molar value. Where a name gives a salt, the structure may show the parent alone. Read-outs that look alike come from different tables or passages of the source.
Legend:
anesthetized guinea-pig = test: Inotropic effect and lethal dose, slow intravenous infusion in anesthetized guinea-pig; type: in vivo; parameters: Maximum dose infused: unit not given here; details: for Emax / ED80 / ED (max): Cavia porcellus, iv, 1.5 h; for Emax: read-out: Emax % increase in +dP/dTmax; for ED80: read-out: ED80 (inotropic potency, dose increasing +dP/dTmax by 80%); for ED (max): read-out: EDmax (dose inducing maximum positive inotropic effect); for % decrease from Emax after 20 min from the end of the infusion: duration of the inotropic effect; for Maximum dose infused: maximum dose infused in the survived animals
[1] = biological target: Dog Kidney Na+, K+-ATPase (Canis lupus familiaris, UniProt P50997); test: Inhibition of the enzymatic activity of purified Na+,K+-ATPase (hydrolysis of 32P-ATP); type: biochemical
[2] = slow i.v. infusion over 90 minutes, anesthetized guinea-pig, maximum increase in contractile force
[3] = slow i.v. infusion over 90 minutes, anesthetized guinea-pig
[4] = slow i.v. infusion over 90 minutes
[5] = read-out: Na+, K+-ATPase Inhibition IC50
[6] = dog kidney enzyme, hydrolysis of 32P-ATP in presence and absence of compound, read-out: Na+, K+-ATPase Inhibition IC50

C=C1C[C@H]2[C@@H]3CCC(=O)[C@@]3(C)CC[C@@H]2[C@@]2(C)CCC(=NO[C@@H]3CCNC3)C[C@]12O (mixture of isomers) [I-bh, (E,Z) 3-[3′-(R)-Pyrrolidinyl]oxyimino-5α-hydroxy-6-methylenandrostane-17-one hydrochloride]
Emax (anesthetized guinea-pig; [2]): 173% | ED80 (anesthetized guinea-pig; [3]): 1.91 µmol/kg | ED (max) (anesthetized guinea-pig; [3]): 3.8 µmol/kg | % decrease from Emax after 20 min from the end of the infusion (anesthetized guinea-pig; anesthetized guinea-pig): 63% | Dead/treated (anesthetized guinea-pig; [3]): 0/3 | Maximum dose infused (anesthetized guinea-pig; [4]): 6.4 | pIC50 ([1]; Na+, K+-ATPase Inhibition IC50): 7.92

C[C@]12CCC(=NO[C@@H]3CCNC3)C[C@@H]1[C@@H](C(N)=O)C[C@@H]1[C@@H]2CC[C@]2(C)C(=O)CC[C@@H]12.Cl [I-at, (Z,E) 3-(3-(R)-Pyrrolidinyloxyimino)-6α-carbamoylandrostane-17-one hydrochloride]
% decrease from Emax after 20 min from the end of the infusion (anesthetized guinea-pig; anesthetized guinea-pig): 16% | Dead/treated (anesthetized guinea-pig; [3]): 0/4 | ED80 (inotropic potency, dose increasing +dP/dTmax by 80%) (anesthetized guinea-pig; [3]): 2.21 µmol/kg | EDmax (dose inducing maximum positive inotropic effect) (anesthetized guinea-pig; [3]): 8.82 µmol/kg | Emax % increase in +dP/dTmax (anesthetized guinea-pig; [2]): 109% | Maximum dose infused (anesthetized guinea-pig; [4]): 25.0 | pIC50 [1, 5]: 6.85

CC12CCC3C(CC(=C(F)F)C4CC(=NOC5CCNC5)CCC43C)C1CCC2=O (mixture of isomers) [I-az, (E,Z) 3-[3-(R)-Pyrrolidinyl]oxyimino-6-difluoromethyleneandrostan-17-one hydrochloride]
Emax (anesthetized guinea-pig; [2]): 244% | ED80 (anesthetized guinea-pig; [3]): 6.69 µmol/kg | ED (max) (anesthetized guinea-pig; [3]): 18.4 µmol/kg | % decrease from Emax after 20 min from the end of the infusion (anesthetized guinea-pig; anesthetized guinea-pig): 20% | Dead/treated (anesthetized guinea-pig; [3]): 0/3 | Maximum dose infused (anesthetized guinea-pig; [4]): 25.2 | pIC50 ([1]; Na+, K+-ATPase Inhibition IC50): 7.68

CON=C1CC2C3CCC(=O)C3(C)CCC2C2(C)CCC(=NOC3CCN(C)C3)CC12 (mixture of isomers) [I-bf, (E,Z) 3-[3′-(S)-(1-Methyl)pyrrolidinyl]oxyimino-6-(E)-methoxyimino-androstane-17-one hydrochloride]
pIC50 [1, 6]: 5.12

C[C@]12CC[C@H](OC(=O)C3CCNCC3)CC1C(=O)C[C@@H]1[C@@H]2CC[C@]2(C)C(=O)CC[C@@H]12 (stereo partly drawn) [I-cw, 3β-(4-Piperidinylcarbonyloxy)androstane-6,17-dione hydrochloride]
pIC50 ([1]; Na+, K+-ATPase Inhibition IC50): 4.96

COCC1CC2CC(=NOC3CCNC3)CCC2(C)C2CCC3(C)C(=O)CCC3C12 (mixture of isomers) [I-dm, (E,Z) 3-[3-(R)-Pyrrolidinyl]oxyimino-7α-methoxymethylandrostane-17-one hydrochloride]
pIC50 [1, 6]: 5.09

CO/N=C1\C[C@H]2[C@@H]3CCC(=O)[C@@]3(C)CC[C@@H]2[C@@]2(C)CC/C(=N\O[C@H]3CCN(C)C3)C[C@]12O [I-by, (E) 3-[3′(S)-(1-Methyl)-pyrrolidinyl]oxyimino)-5α-hydroxy-6-(E)-methoxyiminoandrostane-17-one fumarate]
pIC50 [1, 6]: 4.92

C[C@H]1C[C@@H]2[C@H](CC[C@]3(C)C(=O)CC[C@@H]23)[C@@]2(C)CC/C(=N\O[C@@H]3CCNC3)CC12 (stereo partly drawn) [I-aw, (E) 3-[3-(R)-Pyrrolidinyl]oxyimino-6α-methylandrostane-17-one fumarate]
pIC50 ([1]; Na+, K+-ATPase Inhibition IC50): 6.47

CC12CCC3C(CC(=O)C4CC(=NOC5CCNC5)CCC43C)C1CCC2=O (single isomer, unassigned) [I-ag, hydrochloride]
pIC50 ([1]; Na+, K+-ATPase Inhibition IC50): 6.96

C[C@@H]1CC2CC(=NO[C@@H]3CCNC3)CC[C@]2(C)[C@H]2CC[C@]3(C)C(=O)CC[C@H]3[C@H]12 (stereo partly drawn) [I-ck, (E,Z) 3-[3′-(R)-Pyrrolidinyl]oxyimino-7α-methylandrostane-17-one hydrochloride]
pIC50 [1, 5]: 6.68

3α-[2-(Pyrrolidin-3-(R)-yl)-(Z)-vinyl]androstane-6,7-dione formate [I-df]
pIC50 [1, 5]: 6.44

CC12CCC3C(C(=O)CC4CC(=NOC5CCNC5)CCC43C)C1CCC2=O (single isomer, unassigned) [I-cc]
pIC50 ([1]; Na+, K+-ATPase Inhibition IC50): 6.24

CC12CCC3C(CC4(CC4)C4CC(=NOC5CCNC5)CCC34C)C1CCC2=O (mixture of isomers) [I-ba, (Z,E) 3-(3-(R)-Pyrrolidinyloxyimino)-6-(spirocyclopropane)androstane-17-one hydrochloride]
pIC50 [1, 6]: 6.66

CN1CC[C@H](O/N=C2\CC[C@@]3(C)C(C2)[C@@H](CO)C(=O)[C@@H]2[C@@H]3CC[C@]3(C)C(=O)CC[C@@H]23)C1 (stereo partly drawn) [I-cu, (E,Z) 3-[3′-(S)-(1-Methyl)-pyrrolidinyl]oxyimino-6α-hydroxymethylandrostane-7,17-dione fumarate]
pIC50 [1, 5]: 5.59

CC12CCC3C(CC(=O)C4CC(=NOC5CCNC5)CCC43C)C1CCC2=O (single isomer, unassigned) [I-ad, hydrochloride]
pIC50 ([1]; Na+, K+-ATPase Inhibition IC50): 6.08

CC12CCC3C(CC(O)C4CC(=NOC5CCNC5)CCC43C)C1CCC2=O (single isomer, unassigned) [I-ao, hydrochloride]
pIC50 ([1]; Na+, K+-ATPase Inhibition IC50): 5.64

3β-(2(R,S)-Morpholinylcarbonyloxy)androstane-6,7-dione fumarate [I-cz]
pIC50 [1, 5]: 4.92

C[C@]12CC/C(=N/O[C@H]3CCNC3)CC1[C@@H](CO)C(=O)[C@@H]1[C@@H]2CC[C@]2(C)C(=O)CC[C@@H]12 (stereo partly drawn) [I-di, (Z)-3-[3-(S)-Pyrrolidinyl)oxyimino]-6α-hydroxymethylandrostane-7,17-dione fumarate]
pIC50 ([1]; Na+, K+-ATPase Inhibition IC50): 6.68

CON=C1CC2C3CCC(=O)C3(C)CCC2C2(C)CCC(=NOC3CCNC3)CC12 (single isomer, unassigned) [I-bd, hydrochloride]
pIC50 ([1]; Na+, K+-ATPase Inhibition IC50): 7.74

CC12CCC3C(C(O)C(CO)C4CC(=NOC5CCNC5)CCC43C)C1CCC2=O (single isomer, unassigned) [I-dl, hydrochloride]
pIC50 ([1]; Na+, K+-ATPase Inhibition IC50): 6.77

CC12CCC3C(CC(=O)C4CC(=NOCC5CCCN5)CCC43C)C1CCC2=O (mixture of isomers) [I-ai, hydrochloride]
pIC50 ([1]; Na+, K+-ATPase Inhibition IC50): 4.96

CC12CCC3C(CC(=O)C4CC(OC(=O)C5CCNC5)CCC43C)C1CCC2=O (mixture of isomers) [I-cy, 3β-(3(R,S)-Pirrolidinylcarbonyloxy)androstane-6,17-dione fumarate]
pIC50 ([1]; Na+, K+-ATPase Inhibition IC50): 5.38

COC(=O)[C@@H]1CC2C/C(=N/O[C@@H]3CCNC3)CC[C@]2(C)[C@H]2CC[C@]3(C)C(=O)CC[C@H]3[C@H]12 (stereo partly drawn) [I-cq, (E) 3-[3′-(R)-Pyrrolidinyl]oxyimino-7α-methoxycarbonylandrostane-17-one hydrochloride]
pIC50 [1, 5]: 6.02

3α-[2-(Azetidin-3-yl)-(Z)-vinyl]androstane-6,7-dione formate [I-dh]
pIC50 [1, 5]: 6.08

CC12CCC3C(CC(=O)C4CC(C=CC5CCNCC5)CCC43C)C1CCC2=O (stereo not drawn) [I-dg, 3α-[2-(Pyperidin-4-yl)-(Z)-vinyl]androstane-6,17-dione formate]
pIC50 [1, 6]: 6.05

C[C@H]1C[C@@H]2[C@H](CC[C@]3(C)C(=O)CC[C@@H]23)[C@@]2(C)CC/C(=N/O[C@@H]3CCNC3)CC12 (stereo partly drawn) [I-ax, (Z) 3-[3-(R)-Pyrrolidinyl]oxyimino-6α-methylandrostane-17-one hydrochloride]
pIC50 ([1]; Na+, K+-ATPase Inhibition IC50): 6.59

CC1CC2CC(=NOC3CCNC3)CCC2(C)C2CCC3(C)C(=O)CCC3C12 [I-cn, (Z) 3-[3′-(R)-Pyrrolidinyl]oxyimino-7β-methylandrostane-17-one hydrochloride]
pIC50 ([1]; Na+, K+-ATPase Inhibition IC50): 6.47

CC12CCC3C(C(CO)CC4CC(=NOC5CCNC5)CCC43C)C1CCC2=O (mixture of isomers) [I-ci, (E,Z) 3-[3′-(R)-Pyrrolidinyl]oxyimino-7β-hydroxymethylandrostane-17-one hydrochloride]
pIC50 [1, 6]: 6.48

C[C@]12CC/C(=N\OC3CCNCC3)CC1C(=O)C[C@@H]1[C@@H]2CC[C@]2(C)C(=O)CC[C@@H]12 (stereo partly shown) [I-aa, (E) 3-(4-Piperidyl)oxyiminoandrostane-6,17-dione hydrochloride]
pIC50 ([1]; Na+, K+-ATPase Inhibition IC50): 5.39

(E) 3-[3-(R)-Pyrrolidinyl]oxyiminoandrostane-6,7-dione hydrochloride [I-af]
pIC50 [1, 5]: 7.80

CC12CCC3C(CC(O[N+](=O)[O-])C4CC(=NOC5CCNC5)CCC43C)C1CCC2=O (mixture of isomers) [I-ap, (E,Z) 3-[3-(R)-Pyrrolidinyl]oxyimino-17-oxoandrostane-6α-yl nitrate hydrochloride]
pIC50 [1, 6]: 6.42

CC12CCC3C(C1CCC2=O)C1(CC1)CC1CC(=NOC2CCNC2)CCC13C (mixture of isomers) [I-co, (Z,E) 3-(3′-(R)-Pyrrolidinyloxyimino)-7-(spirocyclopropane)androstane-17-one hydrochloride]
pIC50 ([1]; Na+, K+-ATPase Inhibition IC50): 7.62

C=C1C[C@H]2[C@@H]3CCC(=O)[C@@]3(C)CC[C@@H]2[C@@]2(C)CC/C(=N/O[C@@H]3CCN(C)C3)C[C@]12O [I-bl, (Z) 3-[3′-(R)-(1-Methyl)pyrrolidinyl]oxyimino-5α-hydroxy-6-methyleneandrostane-17-one fumarate]
pIC50 ([1]; Na+, K+-ATPase Inhibition IC50): 4.04

C=C1C[C@H]2[C@@H]3CCC(=O)[C@@]3(C)CC[C@@H]2[C@@]2(C)CC/C(=N/O[C@H]3CCN(C)C3)C[C@]12O [I-bn, (Z) 3-[3′-(S)-(1-Methyl)pyrrolidinyl]oxyimino)-5α-hydroxy-6-methyleneandrostane-17-one fumarate]
pIC50 ([1]; Na+, K+-ATPase Inhibition IC50): 4.02

3β-(3-(R,S)-Piperidinylcarbonyloxy)androstane-6,7-dione hydrochloride [I-cv]
pIC50 [1, 5]: 4.04

COCC1CC2C3CCC(=O)C3(C)CCC2C2(C)CCC(=NOC3CCNC3)CC12 (mixture of isomers) [I-as, (E,Z) 3-[3-(R)-Pyrrolidinyl]oxyimino-6α-methoxymethylandrostane-17-one hydrochloride]
pIC50 [1, 6]: 6.49

C=C1C[C@H]2[C@@H]3CCC(=O)[C@@]3(C)CC[C@@H]2[C@@]2(C)CC/C(=N\O[C@H]3CCN(C)C3)C[C@]12O [I-bo, (E) 3-[3′-(S)-(1-Methyl)pyrrolidinyl]oxyimino)-5α-hydroxy-6-methyleneandrostane-17-one fumarate]
pIC50 ([1]; Na+, K+-ATPase Inhibition IC50): 4.68

Source: US8536160B2, “Azaheterocyclyl derivatives of androstanes and androstenes as medicaments for cardiovascular disorders” (priority 2006, dated 2013)
